Experimental data from patent publication US20100330677A1, “Improved Reprogramming of Mammalian Cells, and Cells Obtained” (Cambridge Enterprise Limited, priority 2008, published 2010).

What was measured:
[1] = system: pre-iPS cells; assay: Adding inhibitors to pre-iPS cells in the presence of foetal calf serum plus LIF; assay type: cell-based, mouse; conditions: for effect on Oct4-GFP activation: foetal calf serum plus LIF, inhibitor alone
Description: We also examined the effect of adding inhibitors in the presence of foetal calf serum plus LIF. The addition of 2i induced stable activation of Oct4-GFP in around 10% of emerging colonies. […] The reduced frequency compared with serum-free 2i culture may be because the ability of PD0325901 to suppress Erk activation is counteracted by serum factors.

[2] = system: Oct4-GFP expressing I-iPS cells; assay: Oct4-GFP reporter activity of partially reprogrammed cells cultured in Fgf2 and activin, with activin receptor inhibitor; assay type: cell-based, mouse; conditions: serum free
Description: Culture of FACS purified GFP expressing incomplete (I) iPS cells in Fgf2 and activin (left) and subsequently on addition of activin receptor inhibitor SB431542 (right). To further investigate the phenotype of these partially reprogrammed cells we assessed Oct4 reporter activity in different culture environments. In conventional ES cell culture using the self renewal cytokine Leukaemia Inhibitory Factor (LIF) and serum in presence or absence of feeders, Oct4-GFP expression was not maintained. In contrast, reporter expression stabilized when cells were cultured serum free in the presence of Fgf2 and activin (FIG. 2). These are conditions used for the propagation of EpiSCs derived from post-implantation embryos (Brons et al., 2007; Tesar et al., 2007). […] We conclude that NS cells are efficiently converted by the reprogramming factors into a heterogeneous cell population with certain properties of EpiSCs rather than ES cells.

For `Cc1c[nH]c(-c2cnc(NCCNc3ccc(C#N)cn3)nc2-c2ccc(Cl)cc2Cl)n1` [GSK3 inhibitor, CHIR99021], the “effect on Oct4-GFP activation” value [1] was “no discernible effect”.

For `O=C(NOC[C@H](O)CO)c1ccc(F)c(F)c1Nc1ccc(I)cc1F` [MEK inhibitor, PD0325901], the “expression of Nanog and Rex1” value ([1]; cells expanded in serum and LIF) was “acquired expression of Nanog and Rex1” and the “effect on Oct4-GFP activation” value [1] was “comparable to 2i”.

With `NC(=O)c1ccc(-c2nc(-c3ccc4c(c3)OCO4)c(-c3ccccn3)[nH]2)cc1` [SB43154212, SB431542] the “effect of inhibitor on Oct4-GFP reporter activity and cells” value [2] was “loss of reporter activity, cell death and differentiation”.
